Measured values from patent publication US10577362B2, “Substituted 2, 4-diamino-quinoline derivatives for use in the treatment of proliferative diseases” (GENOSCIENCE PHARMA, priority 2016, dated 2020).

Legend:
[1] = system: HepG2 (hepatocellular carcinoma) cell line; experiment: CellTiter-Glo luminescent cell viability assay, HepG2; format: cell-based, human; conditions: Homo sapiens; for viability at 4 µM / viability at 10 µM: HepG2, HepG, 72 h; for viability at 4 µM: compound at 4 μM; for viability at 10 µM: compound at 10 μM; for EC50: HepG2 cell line, 72 h incubation, CellTiter-Glo, read-out: EC50, growth inhibition of HepG2
Summary of the method: (§1)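 EC50 is the concentration cutting CellTiter-Glo luminescence to half that of H2O- or DMSO-treated controls after 72 h compound exposure, with each point in at least duplicate. HepG2, Huh7 and PANC-1 were seeded the night before; MOLM-14 1 h prior; all cultured with 10% FBS, 37 °C, 5% CO2.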

[2] = system: MOLM-14 (acute myeloid leukemia) cell line; experiment: CellTiter-Glo luminescent cell viability assay, MOLM-14; format: cell-based, human; conditions: Homo sapiens; for viability at 4 µM: MOLM-14, compound at 4 μM; for viability at 4 µM / viability at 10 µM: 72 h; for viability at 10 µM: MOLM-14, compound at 10 μM; for EC50: MOLM-14 cell line, 72 h incubation, CellTiter-Glo, read-out: EC50, growth inhibition of MOLM-14
Summary of the method: as §1

[3] = system: Huh7 (hepatocellular carcinoma) cell line; experiment: CellTiter-Glo luminescent cell viability assay, Huh7; format: cell-based, human; conditions: Homo sapiens, Huh-7; for viability at 4 µM: Huh7, compound at 4 μM; for viability at 4 µM / viability at 10 µM: 72 h; for viability at 10 µM: Huh7, compound at 10 μM; for EC50: Huh7 cell line, 72 h incubation, CellTiter-Glo, read-out: EC50, growth inhibition of Huh7
Summary of the method: as §1

[4] = system: PANC-1 (prancreatic carcinoma) cell line; experiment: CellTiter-Glo luminescent cell viability assay, PANC-1; format: cell-based; conditions: Homo sapiens; for viability at 4 µM: PANC-1, 4 μM; for viability at 4 µM / viability at 10 µM: 72 h, % of signal of diluent-treated cultures; for viability at 10 µM: PANC-1, 10 μM
Description: All cell lines were maintained in medium containing 1% penicillin-streptomycin (Dutscher, P06-07100) and 10% Fetal Bovine Serum (Hyclone Dutscher, RZK35922) cultured at 37° C. with 5% CO2. HepG2 (hepatocellular carcinoma), cell line was cultured in Dulbecco's modified Eagle's medium low glucose (Gibco, 21885025), Huh7 (hepatocellular carcinoma), HCT-116 (colorectal carcinoma), PANC-1 (prancreatic carcinoma) and A375 (malignant melanoma) cell lines were cultured in Dulbecco's modified Eagle's medium (Dutscher, L0103). MOLM-14 (acute myeloid leukemia) cell line was maintained in MEM alpha medium (Gibco, 22561-021). 786-0 (renal adenocarcinoma) cell lines were maintained in RPMI 1640 medium (Dutscher, L0498).
Cell viability was measured using the CellTiter-Glo® luminescent cell viability assay as described by the manufacturer (Promega, Ref G7571) using an Infinite F200Pro luminometer (Tecan). Briefly, for adherent cells, cells were plated onto 96-well plates (white with clear bottom) in 90 μL of media per well and were allowed to grow overnight before the assay. For cells growing in suspension, cells were plated onto 96-well plates 1 h before the assay.
Compounds were resuspended in H2O or DMSO and added at different concentrations to each well, and cell cultures were incubated for 72 h. Each diluent (H2O or DMSO) were used as a control, and all compounds were tested in a constant percentage of H2O or DMSO. On the day of the reading, plates are equilibrated 30 min at room temperature before the addition of 100 μL of CellTiter-Glo® and luminescence was measured using an Infinite F200Pro (Tecan). % cell viability were expressed as a percentage of the signal obtained for cell cultures treated with diluent. EC50 values were determined as the dose of compound required to reduce luminescent values to 50% of the signal obtained for cell cultures treated with diluent. The experimental data were analyzed using a computer program, Graphpad Prism v5 (GraphPad Software, Inc. La Jolla, Calif.). All points were at least done in duplicate.

[5] = system: HCT-116 (colorectal carcinoma) cell line; experiment: CellTiter-Glo luminescent cell viability assay, HCT-116; format: cell-based, human; conditions: Homo sapiens; for viability at 4 µM: HCT-116, compound at 4 μM; for viability at 4 µM / viability at 10 µM: 72 h; for viability at 10 µM: HCT-116, compound at 10 μM; for EC50: HCT-116 cell line, 72 h incubation, CellTiter-Glo, read-out: EC50, growth inhibition of HCT-116
Summary of the method: (§2)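 Cells were cultured at 37 °C, 5% CO2 with 10% FBS; adherent lines were plated overnight, suspension MOLM-14 plated 1 h before dosing. Compounds in H2O or DMSO were added at various concentrations for 72 h, and viability was read by luminescence. EC50 is the dose reducing signal to 50% of diluent control.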

[6] = system: A375 (malignant melanoma) cell line; experiment: CellTiter-Glo luminescent cell viability assay, A375; format: cell-based, human; conditions: Homo sapiens, A-375; for viability at 4 µM: A375, compound at 4 μM; for viability at 4 µM / viability at 10 µM: 72 h; for viability at 10 µM: A375, compound at 10 μM; for EC50: A375 cell line, 72 h incubation, CellTiter-Glo, read-out: EC50, growth inhibition of A375
Summary of the method: as §2

[7] = system: 786-O (renal adenocarcinoma) cell line; experiment: CellTiter-Glo luminescent cell viability assay, 786-O; format: cell-based, human; conditions: Homo sapiens, 786-0; for EC50: 786-O cell line, 72 h incubation, CellTiter-Glo, read-out: EC50, growth inhibition of 786-O; for viability at 4 µM / viability at 10 µM: 786-O, 72 h; for viability at 4 µM: compound at 4 μM; for viability at 10 µM: compound at 10 μM
Summary of the method: as §2

Compound	viability at 4 µM [1]	viability at 10 µM [1]	EC50 [1]	viability at 4 µM [2]	viability at 10 µM [2]	EC50 [2]	viability at 4 µM [3]	viability at 10 µM [3]	EC50 [3]	viability at 4 µM [4]	viability at 10 µM [4]	viability at 4 µM [5]	viability at 10 µM [5]	EC50 [5]	viability at 4 µM [6]	viability at 10 µM [6]	EC50 [6]	EC50 [7]	viability at 4 µM [7]	viability at 10 µM [7]	other results
CN1CCN(C2CCN(c3c(C#N)c(NCc4ccc(Cl)cc4)nc4ccccc34)C2)CC1 (stereo not drawn) [Compound 3200CN, 2-(4-chloro-benzylamino)-3-cyano-4-[3-(4-methylpiper-azin-1-yl)pyrro-lidin-1-yl] quinoline]	71.8%	0.3%	5 to 10 µM	97.1%	0.4%	5 to 10 µM	80.6%	0.4%	5 to 10 µM	90.2%	38.4%	35.1%	0.4%	5 to 10 µM	47.3%	0.3%	5 to 10 µM	5 to 10 µM	41.7%	0.4%	–
Cc1nnc(Nc2nc3ccccc3c(N3CCC(NC(C)(C)C)CC3)c2C#N)o1 [Compound 3272CN, 2-[(5-methyl-1,3,4-oxadiazol-2-yl)amino]-3-cyano-4-[4-(tert-butylamino)piperidin-1-yl]quinoline]	97.7%	61.2%	–	82.3%	20.7%	–	92.6%	67.2%	–	84.7%	65.3%	13.9%	5%	–	62.3%	21.2%	–	–	79%	48.9%	–
CC(C)(C)NC1CCN(c2c(C#N)c(Nc3cnccn3)nc3ccccc23)CC1 [Compound 3284CN, 2-(pyrazin-2-ylamino)-3-cyano-4-[4-(tertbutylamino)piperidin-1-yl]quinoline]	90%	68.4%	–	102%	78.3%	–	95.3%	79.2%	–	96.3%	69.4%	83.4%	27.4%	–	88.3%	64.9%	–	–	89.8%	61.9%	–
N#Cc1c(NCc2ccc(Cl)cc2)nc2ccccc2c1N1CCC(NC2CCOCC2)CC1 [Compound 3180CN, 2-(4-chlorobenzylamino)-3-cyano-4-{4-[(tetrahydro-2H-pyran-4-yl)amino]piperidin-1-yl}quinoline]	78.4%	0.4%	5 to 10 µM	92.3%	22.7%	5 to 10 µM	76.5%	0.4%	5 to 10 µM	94.9%	58.9%	59.5%	0.2%	5 to 10 µM	88.6%	0.3%	5 to 10 µM	5 to 10 µM	69.7%	0.4%	EC50 ([4]; PANC-1 cell line, 72 h incubation, CellTiter-Glo, read-out: EC50 (growth inhibition assay of PANC-1 cell line)): 5 to 10 µM
